This is an account of results in patent US20220152060A1, “PHYTOECDYSONES AND THE DERIVATIVES THEREOF FOR USE IN THE TREATMENT OF IMPAIRED LUNG FUNCTION” (BIOPHYTIS, priority 2019, published 2022).

Experiment [1] relates to mdx mice. Kind of experiment: whole-body plethysmography of respiratory function in response to metacholine. Format: in vivo. How it is done:
Male mice C57BL/10ScSnJ (healthy mice denoted as “C57Black10” in the figures) and C57BL/10ScSn-Dmdmdx/J (murine model of Duchenne muscular dystrophy, denoted “mdx” in the figures) aged 12 weeks, have been used. The mice have been divided into three groups of 12 mice each: an untreated group of healthy control mice C57Black10, a group of untreated mdx mice (mdx) and a group of mice chronically treated with a dose of 50 mg/kg/day, orally in the drinking water. The respiratory function of all the mice has been evaluated by whole-body plethysmography before the start of the study, (D0) then at 30 days (D30) and 60 days (D60) after the start of the treatment. After two months of treatment, the respiratory function has been invasively evaluated, just before sacrifice of the animal, by piston ventilated controlled by a central control unit (commonly called “computer”), said ventilator using the forced oscillation technique, such as the device known by the name FlexiVent™, in order to determine more directly the mechanical parameters of the respiratory system. In order to precisely monitor the change in respiratory function over the course of the treatment, whole-body plethysmography analyses (Emka Technologies, Paris, France) have been performed on the healthy control mice C57Black10, on the untreated mdx mice and on the mdx mice having been treated with BIO101. The advantages of this technique reside in the fact that it allows monitoring to be performed on an awake animal, freely moving in a hermetic enclosure, and that this is performed in a non-invasive manner. Consequently, the stress due to handling of the animals is reduced as it is possible to repeat the measurements over prolonged periods. Barometric plethysmography is therefore frequently used for measuring bronchial reactivity in small animals (Chong et al., 1998; Djuric et al., 1998; Hoffman et al., 1999). The pressure variations measured with respect to a reference chamber make it possible to define various respiratory parameters such as the peaks and times of inspiratory and expiratory pressure as well as a dimensionless quantity called Penh (enhanced Pause) which allows the bronchoconstriction to be evaluated. More specifically, the Penh, calculated from the pressure signal (Pb) in the chamber, is an important index to obtain, because the variations in Penh change in parallel with those of the respiratory resistance and it therefore represents a predictive parameter for changes in the resistive properties of the respiratory system (Hamelmann et al., 1997; Bergren, 2001; Onclinx et al., 2003). The following values have been calculated from the filtered Pb: the maximum variation in Pb during expiration (PEP: Peak Expiratory Pressure), the maximum change in Pb during inspiration (PIP: Peak Inspiratory Pressure) and the time interval (TR). The Penh value has then been calculated as follows: […] [Math. 1] where Pause=(TE−TR)/TE [Math. 2] • TE being the expiration time (Adler et al., 2004). Moreover, the peak inspiratory flow (PIF) and the peak expiratory flow (PEF), the relaxation time (RT) and the respiratory rate (BF) have also been measured and shown. The Penh value has been measured before the start of the treatment (D0), 30 days after the start of the treatment (D30) and 60 days after the treatment (D60). First, the entire cohort of mdx mice (n=24) were compared with healthy mice C57Black10 (n=12), before receiving the treatment. Awake mice were exposed to increasing doses of metacholine aerosols generated by a nebulizer containing 0 to 40 mg/mL of metacholine in PBS.

Experiment [2] deals with mdx mice. Kind of experiment: piston ventilator (FlexiVent) forced oscillation measurement of pulmonary resistance, compliance and elastance. Format: in vivo. The conditions noted are these: 50 mg/kg/day oral. How it is done:
Male mice C57BL/10ScSnJ (healthy mice denoted as “C57Black10” in the figures) and C57BL/10ScSn-Dmdmdx/J (murine model of Duchenne muscular dystrophy, denoted “mdx” in the figures) aged 12 weeks, have been used. The mice have been divided into three groups of 12 mice each: an untreated group of healthy control mice C57Black10, a group of untreated mdx mice (mdx) and a group of mice chronically treated with a dose of 50 mg/kg/day, orally in the drinking water. The respiratory function of all the mice has been evaluated by whole-body plethysmography before the start of the study, (D0) then at 30 days (D30) and 60 days (D60) after the start of the treatment. After two months of treatment, the respiratory function has been invasively evaluated, just before sacrifice of the animal, by piston ventilated controlled by a central control unit (commonly called “computer”), said ventilator using the forced oscillation technique, such as the device known by the name FlexiVent™, in order to determine more directly the mechanical parameters of the respiratory system. In order to determine more directly the mechanical parameters of the respiratory system and the impact of a chronic treatment over a period of two months by BIO101 (D60) on these parameters, the dynamic pulmonary resistance was measured using a piston ventilator system as previously described, in response to increasing doses of metacholine. The mice were anaesthetized and connected by an endotracheal cannula to the piston ventilator system. After the start of mechanical ventilation, each mouse received an intraperitoneal injection of 0.1 mL of a 10 mg/mL rocuronium bromide solution. The animal was ventilated at a respiratory rate of 150 respirations/minute and with a tidal volume of 10 mL/kg against a final positive expiratory pressure of 3 cm H2O. The respiratory mechanisms were evaluated using a forced oscillation maneuver with a duration of 1.2 seconds (2.5 Hz) and a 3-second wideband forced oscillation man oeuvre containing 13 primordial frequencies between 1 and 20.5 Hz. The resistance of the respiratory system (R) was calculated using a microcomputer type central processing unit connected to the piston ventilator system and comprising, in particular, software for performing said calculation. The two maneuvers were carried out alternately every 15 seconds after each nebulization with a metacholine aerosol, in order to measure the change in the response time of the bronchoconstriction induced by metacholine. The pulmonary resistance, compliance and elastance could thus be determined.

For the molecule `CC(C)(O)CC[C@@H](O)[C@](C)(O)[C@H]1CC[C@@]2(O)C3=CC(=O)[C@@H]4C[C@@H](O)[C@@H](O)C[C@]4(C)[C@H]3CC[C@]12C` [BIO101, 20-hydroxyecdysone], the relaxation time result in the experiment on mdx mice [1] (50 mg/kg/day oral, 30 days, compared with untreated mdx mice, p<0.05 (FIG. 3D)) is “clear improvement in relaxation time”; with mdx mice [1] (50 mg/kg/day oral, 60 days (FIG. 4D)), “trend towards improved relaxation time”. The “peak inspiratory flow (cited to FIG. 3B)” value in the experiment with mdx mice [1] (50 mg/kg/day oral, 30 days, in comparison to D0) is reported as “remain unchanged”. Besides, the respiratory rate result was “remain unchanged” in the experiment on mdx mice [1] (50 mg/kg/day oral, 30 days, in comparison to D0 (FIG. 3E)) and “remain unchanged” with mdx mice [1] (50 mg/kg/day oral, 60 days (FIG. 4E)). The “peak inspiratory flow (cited to FIG. 3C)” value in the experiment on mdx mice [1] (50 mg/kg/day oral, 30 days, in particular equilibrium state or low metacholine dose, p<0.05) is listed as “increase in peak inspiratory flow”. In addition, in the experiment on mdx mice [1] (50 mg/kg/day oral, 60 days), the peak expiratory flow entry was “remain unchanged”. Further, in the experiment on mdx mice [1] (50 mg/kg/day oral, 60 days, p<0.05 (FIG. 4B)), the peak inspiratory flow result was “significant improvement”. Moreover, the “mean Penh value” in the experiment on mdx mice [1] (50 mg/kg/day oral, D60, metacholine dose of 40 mg/mL, untreated mdx 4, healthy 1.04 (FIG. 6B)) is reported as 1.87. For the same molecule, the “Penh in response to metacholine” value in the experiment with mdx mice [1] (50 mg/kg/day oral, after 60 days of treatment, compared to untreated mdx mice, p<0.0001 (FIG. 4A)) is on record as “significant reduction in the Penh”; with mdx mice [1] (50 mg/kg/day orally in drinking water, after 30 days of treatment, compared to mdx mice at D0, p<0.001 (FIG. 3A)), “significant reduction in Penh”. Also, in the experiment on mdx mice [2] (60 days, metacholine 0 to 20 mg/mL, vs untreated mdx mice, p<0.0001), the “resistance of the airways (pulmonary resistance)” value is given as “significantly lower resistance of the airways”. The molecule also yielded a pulmonary compliance with mdx mice [2] (D60, metacholine 20 mg/mL, untreated mdx 0.017, healthy 0.031 (FIG. 8B)) of 0.029 mL/cmH2O. The pulmonary elastance in the experiment on mdx mice [2] (D60, metacholine 20 mg/mL, untreated mdx 34.8, healthy 62.8 as printed (FIG. 8C)) was determined as 69.1 cmH2O/mL. Moreover, in the experiment with mdx mice [2] (two months, p<0.0001 (FIG. 7B)), the “pulmonary compliance, change at increasing metacholine doses” value is “significantly improved”. In the experiment on mdx mice [2] (two months, p<0.0001 (FIG. 7C)), the “pulmonary elastance, change at increasing metacholine doses” value was “significantly improved”.
